Molecules are shown by their SMILES.

The target in assay [1] is T1, LmMK (recombinant, bacterially expressed) (Leishmania major, UniProt Q4Q6K7).
T1 construct: gene LMJF_31_0560; pET15b (NdeI/XhoI), E. coli BL21(DE3), N-terminal His-tag removed by thrombin; about 329 residues, monomer, about 35 kDa; 3 C-terminal residues disordered
T1 sequence (Q4Q6K7 1-329): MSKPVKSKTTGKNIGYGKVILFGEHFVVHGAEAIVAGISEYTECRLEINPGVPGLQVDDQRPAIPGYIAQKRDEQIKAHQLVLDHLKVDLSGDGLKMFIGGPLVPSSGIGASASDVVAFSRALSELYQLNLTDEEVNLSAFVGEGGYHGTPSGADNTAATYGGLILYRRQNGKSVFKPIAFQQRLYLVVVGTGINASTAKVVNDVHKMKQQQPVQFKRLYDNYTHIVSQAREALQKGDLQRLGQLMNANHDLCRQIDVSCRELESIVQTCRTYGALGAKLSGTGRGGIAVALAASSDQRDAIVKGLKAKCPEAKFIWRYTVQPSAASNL
Nature of the assay: X-ray crystal structure of complex, […] A (also radioactive kinase assay). It is filed as binding.

The target in assay [2] is T1, LmMK (recombinant, bacterially expressed). As to the kind of experiment: radioactive phosphorylation assay, chromatography, scintillation counting. The class given is biochemical.
Another assay has as its target T2, TbMK (TbMK-HA) (Trypanosoma brucei, UniProt Q57Y11).
T2 construct: gene Tb04.1D20.470
It is filed as biochemical. The settings on record: phosphate donor; with 833 uM [3H](R)-MVA, MgCl2 5 uM, pH 7.0, 30 C.

T2 sequence (Q57Y11 entry or part of it): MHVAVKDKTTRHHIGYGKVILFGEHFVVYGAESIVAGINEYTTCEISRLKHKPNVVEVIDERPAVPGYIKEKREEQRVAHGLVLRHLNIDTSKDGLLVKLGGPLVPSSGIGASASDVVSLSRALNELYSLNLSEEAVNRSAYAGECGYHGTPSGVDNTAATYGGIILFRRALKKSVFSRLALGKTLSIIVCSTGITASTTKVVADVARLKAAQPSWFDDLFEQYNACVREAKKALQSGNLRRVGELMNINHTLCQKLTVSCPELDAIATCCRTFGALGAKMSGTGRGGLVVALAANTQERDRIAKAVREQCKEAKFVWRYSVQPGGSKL

Take `C[C@@](O)(CCO)CC(=O)O` [(R)-MVA]: the “X-ray crystal structure of complex, 1.9 A (also radioactive kinase assay)” value in assay [1] was “The electron density clearly indicated the presence of (R)-MVA in molecule A”.
Take `Nc1ncnc2c1ncn2[C@@H]1O[C@H](COP(=O)(O)OP(=O)(O)OP(=O)(O)O)[C@@H](O)[C@H]1O` [ATP]: the “radioactive phosphorylation assay, chromatography, scintillation counting” value in assay [2] was “Activity of LmMK was observed after incubation of the enzyme with radiolabeled [^3H] (R)-MVA and ATP”; on TbMK (TbMK-HA), “an ATP-dependent MK activity in Leishmania and Trypanosoma”.

Source of the values: article PMC1851959, “Structure, substrate recognition and reactivity of Leishmania major mevalonate kinase” (BMC Structural Biology, 2007).
